biological target: T1, CCR-3 (Homo sapiens, UniProt P51677); assay: Eotaxin-induced chemotaxis of CCR-3 transfectant cells (CCR3/U937); format: cell-based; set-up: expressed in transfected cells; host or cells: U937; details: 10 µM test compound; eotaxin 1 x 10^-9 M; CCR3/U937 cells (Table 3a)
T1 sequence (P51677 1-355): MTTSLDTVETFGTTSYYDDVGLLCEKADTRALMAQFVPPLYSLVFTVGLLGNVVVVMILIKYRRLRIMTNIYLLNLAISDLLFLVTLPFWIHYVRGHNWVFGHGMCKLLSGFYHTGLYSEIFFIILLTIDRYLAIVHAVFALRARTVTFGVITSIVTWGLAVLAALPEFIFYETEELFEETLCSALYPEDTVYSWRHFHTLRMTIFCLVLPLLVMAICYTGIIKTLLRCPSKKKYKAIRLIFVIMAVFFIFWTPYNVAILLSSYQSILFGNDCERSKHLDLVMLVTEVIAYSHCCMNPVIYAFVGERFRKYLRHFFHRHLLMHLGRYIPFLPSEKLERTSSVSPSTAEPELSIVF
Method: The inhibitory activity of the compounds against eotaxin-induced chemotaxis was determined by measuring the inhibition of migration of CCR-3 transfectant cells (CCR3/U937), using a minor modification of the method described by Ohashi, H. et al., Int Arch Allergy Immunol. […] The chemotaxis assay was performed in a 24-well culture plate. Human eotaxin suspended in assay medium was added to the wells at 1 x 10^-9 M along with test compounds at various concentrations. For a positive control, eotaxin was added to the wells without a test compound, and for a negative control, neither eotaxin nor a test compound was added to the wells. Chemotaxicell (Kurabo Co., Ltd.) having 5 micrometers pore size were inserted into each well and 100 micro liters of CCR-3 transfectant cells suspension were added to the top chamber. The plates were incubated at 37 °C for 1 hour. After incubation, migrated cells in lower wells were diluted and counted by particle size distribution analyzer (CDP-500, Sysmex Co., Ltd.).

| SMILES | Chemotaxis Assay 10 µM (inhibition %) [%] |
| --- | --- |
| O=C(O)CCCN(CCCNC(=O)Nc1ccc(Br)cc1)CCC(c1ccccc1)c1ccccc1 [Compound 76] | 44 |
| CC(c1ccccc1)N(CCCNC(=O)Nc1ccc(Br)cc1)CCCC(=O)O (centres unmarked) [Compound 77] | 76 |
| O=C(O)CCCN(CCCNC(=O)Nc1ccc(Br)cc1)CCc1ccc(Cl)cc1 [Compound 79] | 78 |
| O=C(O)CCCN(CCCNC(=O)Nc1ccccc1)CCc1ccc(Cl)cc1 [Compound 80] | 65 |
| O=C(O)CCCN(CCCNC(=O)Nc1cccc(Cl)c1)C1CCCc2ccccc21 (centres unmarked) [Compound 82] | 100 |
| Cc1cccc(NC(=O)NCCCN(CCCC(=O)O)C2CCCc3ccccc32)c1 (centres unmarked) [Compound 83] | 100 |
| O=C(O)CCCN(CCCNC(=O)Nc1ccc(Cl)c(C(F)(F)F)c1)C1CCCc2ccccc21 (centres unmarked) [Compound 84] | 100 |
| O=C(O)CCCN(CCCNC(=O)Nc1ccccc1-c1ccccc1)C1CCCc2ccccc21 (centres unmarked) [Compound 85] | 19 |
| COc1ccc(NC(=O)NCCCN(CCCC(=O)O)C2CCCc3ccccc32)c(OC)c1 (centres unmarked) [Compound 86] | 37 |
| O=C(O)CCCN(CCCNC(=O)Nc1ccccc1)C1CCCc2ccccc21 (centres unmarked) [Compound 87] | 97 |
| COc1ccc(NC(=O)NCCCN(CCCC(=O)O)C2CCCc3ccccc32)cc1 (centres unmarked) [Compound 88] | 100 |
| O=C(O)CCCN(CCCNC(=O)Nc1ccc(Oc2ccccc2)cc1)C1CCCc2ccccc21 (centres unmarked) [Compound 89] | 89 |
| O=C(O)CCCN(CCCNC(=O)Nc1cccc2ccccc12)C1CCCc2ccccc21 (centres unmarked) [Compound 90] | 100 |
| COC(=O)CCCN(CCCNC(=O)Nc1ccc(Br)cc1)C1CCc2ccccc21 (centres unmarked) [Compound 172, Methyl 4-[[3-(4-bromophenylureido)propyl](1-indanyl)amino]burylate] | 100 |
| O=C(O)CCCN(CCCNC(=O)Nc1ccc(Br)cc1)C1CCc2ccccc21 (centres unmarked) [Compound 173, 4-[[3-(4-Bromopbenylureido)propyl](1-indanyl)amino]butanoic acid] | 100 |
| COC(=O)CCCN(CCCNC(=O)Nc1ccc(Br)cc1)C1Cc2ccccc2C1 [Compound 174] | 100 |
| O=C(O)CCCN(CCCNC(=O)Nc1ccc(Br)cc1)C1Cc2ccccc2C1 [Compound 175] | 100 |
| COC(=O)CCCN(CCCNC(=O)Nc1ccc(Br)cc1)C1CCc2ccccc21 (centres unmarked) [Compound 176] | 75 |
| O=C(O)CCCN(CCCNC(=O)Nc1ccc(Br)cc1)C1CCc2ccccc21 (centres unmarked) [Compound 177] | 89 |

| SMILES | Chemotaxis Assay 10 µM (inhibition %) [%] |
| --- | --- |
| COC(=O)CCCN(CCCNC(=O)Nc1ccc(Br)cc1)[C@@H]1CCc2ccccc21 [Compound 178, Methyl 4-[[3-(4-bromophenylureido)propyl][(1R)-1-indanyl]amino]butylate] | 100 |
| COC(=O)CCCN(CCCNC(=O)Nc1ccc(Br)cc1)[C@@H]1CCCc2ccccc21 [Compound 180, Methyl 4-[[3-(4-bromophenylureido)propyl][(1R)-1,2,3,4-tetrahydro-1-naphthyl]amino]burylate] | 100 |
| CCOC(=O)CCCN(CCCNC(=O)Nc1ccc(Br)cc1)C1CCCc2ccccc21 (centres unmarked) [Compound 184, Ethyl 4-[[3-(4-bromophenylureido)propyl](1,2,3,4-tetrahydro-1-naphthyl)amino]burylate] | 100 |
| COC(=O)CCCN(CCCNC(=O)Nc1ccc(Cl)cc1)C1CCCc2ccccc21 (centres unmarked) [Compound 185] | 100 |
| O=C(O)CN(CCCNC(=O)Nc1ccc(Br)cc1)C1CCCc2ccccc21 (centres unmarked) [Compound 186] | 69 |
| COC(=O)CCCN(CCCNC(=O)Nc1ccc(F)cc1)C1CCCc2ccccc21 (centres unmarked) [Compound 187] | 100 |
| O=C(O)CCCN(CCCNC(=O)Nc1ccc(F)cc1)C1CCCc2ccccc21 (centres unmarked) [Compound 188] | 100 |
| COC(=O)CCCN(CCCNC(=O)Nc1ccccc1Br)C1CCCc2ccccc21 (centres unmarked) [Compound 189] | 94 |
| O=C(O)CCCN(CCCNC(=O)Nc1ccccc1Br)C1CCCc2ccccc21 (centres unmarked) [Compound 190] | 90 |
| CCN(CCCNC(=O)Nc1ccccc1Br)C1CCCc2ccccc21 (centres unmarked) [Compound 191] | 100 |
| CCN(CCCNC(=O)Nc1ccccc1)C1CCCc2ccccc21 (centres unmarked) [Compound 192] | 100 |
| COC(=O)CCCN(CCCNC(=O)Nc1ccccc1Br)C(C)(C)c1ccccc1 [Compound 194] | 100 |
| CC(C)(c1ccccc1)N(CCCNC(=O)Nc1ccccc1Br)CCCC(=O)O [Compound 195] | 100 |
| COC(=O)CCCN(CCCNC(=O)Nc1cccc(Br)c1)C1CCCc2ccccc21 (centres unmarked) [Compound 198] | 100 |
| O=C(O)CCCN(CCCNC(=O)Nc1cccc(Br)c1)C1CCCc2ccccc21 (centres unmarked) [Compound 199] | 100 |
| COC(=O)CCCN(CCCNC(=O)Nc1ccc(Br)cc1C)C1CCCc2ccccc21 (centres unmarked) [Compound 200] | 100 |
| Cc1cc(Br)ccc1NC(=O)NCCCN(CCCC(=O)O)C1CCCc2ccccc21 (centres unmarked) [Compound 201] | 100 |
| CC(=O)OCCCCN(CCCNC(=O)Nc1ccc(Br)cc1)C1CCCc2ccccc21 (centres unmarked) [Compound 202] | 100 |
| O=C(NCCCN(CCCCCO)C1CCCc2ccccc21)Nc1ccc(Br)cc1 (centres unmarked) [Compound 205] | 97 |

same assay, conditions: U-937; 10 µM test compound; eotaxin 1 x 10^-9 M; CCR3/U937 cells (Table 3a)

| SMILES | inhibition at 10 µM [%] |
| --- | --- |
| O=C(O)CCCN(CCCNC(=O)Nc1ccc(Cl)cc1)C1CCCc2ccccc21 (centres unmarked) [Compound 171, 4-[[3-(4-Chlorophenylureido)propyl](1,2,3,4-tetrahydro-1-naphthyl)amino]butanoic acid] | 100 |
| O=C(O)CCCN(CCCNC(=O)Nc1ccc(Br)cc1)[C@@H]1CCc2ccccc21 [Compound 179, 4-[[3-(4-Bromophenylureido)propyl][(1R)-1-indanyl]amino]butanoic acid] | 100 |
| O=C(O)CCCN(CCCNC(=O)Nc1ccc(Br)cc1)[C@@H]1CCCc2ccccc21 [Compound 181, 4-[[3-(4-Bromophenylureido)propyl][(1R)-1,2,3,4-tetrahydro-1-naphthyl]amino]butanoic acid] | 100 |
| NC(=O)CCCN(CCCNC(=O)Nc1ccc(Br)cc1)C1CCCc2ccccc21 (centres unmarked) [Compound 193, 4-[[3-(4-Bromophenylureido)propyl](1,2,3,4-tetrahydro-1-naphthyl)amino]butanamide] | 100 |
| O=C(CCCN(CCCNC(=O)Nc1ccc(Br)cc1)C1CCCc2ccccc21)NS(=O)(=O)c1ccccc1 (centres unmarked) [Compound 196, 3-[[3-(4-Bromophenylureido)propyl](1,2,3,4-tetrahydro-1-naphthyl)amino]-1-[(phenylsulfonyl)carbamoyl]propane] | 100 |
| O=C(NCCCN(CCCCO)C1CCCc2ccccc21)Nc1ccc(Br)cc1 (centres unmarked) [Compound 203, 4-[[3-(4-Bromophenylureido)propyl](1,2,3,4-tetrahydro-1-naphthyl)amino]-1-butanol] | 100 |

— patent EP1200395B1, “UREA DERIVATIVES AS INHIBITORS OF CCR-3 RECEPTOR” (KIRIN BEER KABUSHIKI KAISHA, priority 1999, dated 2001)
